Reference: patent publication US20120135002A1, “Compounds and Methods for the Treatment of Cancer” (priority 2009, published 2012)

Assays:
HL60 = assay: Transcriptome (microarray) analysis of treated HL60 cells; type: cell-based, human; settings: for number of genes modulated by the three different agents: HL60 cell line, genes affected by DFO, DFX and mAb A24 together
AML cells lines = assay: CD14 and CD11b monocytic marker expression in AML cell lines; type: cell-based
Description: Peripheral blood cells from AML patients and healthy donors was analyzed after obtaining their written informed consent (please refer to supplementary table 2 for additional information). Peripheral blood was collected at the initial diagnosis previously to treatment administration. Mononuclear cells were separated by Ficoll-hypaque (PAA laboratories) density centrifugation and resuspended in IMDM medium (Invitrogen) supplemented with 15% fetal calf serum (FCS) (Hyclone), 100 ng/ml Stem Cell Factor (SCF), 10 ng/ml Interleukin 3 (IL-3) and 25 ng/ml FLT3-L (all purchased from R&D Systems). HL60 and U937 cell lines were a kind gift from J. M. Cayuela (Saint-Louis Hospital, Paris). Cells were cultured in RPMI-1640 medium (Invitrogen) supplemented with 5% FCS and antibiotics.
The ability of iron deprivation to override blockade of AML cells differentiation was tested. In AML cells lines, monocytic markers CD14 and CD11b (which are induced by the vitamin D3 (VD), a monocytic differentiating agent) were induced by iron deprivation by A24 mAb, DFO and DFX. Induction of cell surface markers was accompanied by characteristic cytological modifications of monocytes. Iron deprivation induced cytoplasm enlargement, loss of cytoplasm basophilia and azurophilic granules. […]

c-Jun, c-Fos = assay: c-Jun and c-Fos expression in HL60 cells; type: cell-based; settings: VD 250 nM, A24 10 μg/ml, DFO 5 μM, DFX 3 μM
Description: FIG. 4 depicts the change in c-Jun expression following treatment of HL60 cells with vitamin D3 (VD, 250 nM), A24 (A24, 10 μg/ml), deferoxamine (DFO, 5 μM) or deferasirox (DFX, 3 μM).
FIG. 5 depicts the c-Fos and c-Jun mRNA levels (evaluated by quantitative RT-PCR and normalized to GAPDH mRNA levels) in HL60 cells treated for 48 h with A24 (A24, 10 μg/ml); deferoxamine (DFO, 5 μM); or deferasirox (DFX, 3 μM) (mean±SEM, n=4).
Total RNA was extracted using Nucleospin RNA II (Macherey-Nagel). Following DNAse treatment, first-strand cDNA was synthesized using a SuperScript II reverse transcriptase (Invitrogen). Quantitative real-time PCR was performed with a Chromo-IV PCR System (MJ Research) and PCR products were quantified using SybrGreen Technology (Jumpstart mastermix, Sigma Aldrich). Results of real-time quantitative PCR were interpreted using the delta-delta Ct method (Livak et al. (2001) Methods 25:402-408). The complete list of primer sequences used is available in supplementary data section, table 4.
By comparing (with a non-supervised analysis) the pattern of genes induced by VD and iron-chelating agents, a high similarity was found among modulated genes. Thirty of the 105 genes modulated by iron deprivation were shared with VD modified genes. This finding underscores the potential similarities between both differentiation approaches. […]

[1] = test system: squamous cell carcinoma and prostatic adenocarcinoma; settings: in vitro; cited from earlier work

CC(=O)N(O)CCCCCNC(=O)CCC(=O)N(O)CCCCCNC(=O)CCC(=O)N(O)CCCCCN [DFO]
number of genes modulated by the three different agents (HL60): 105

O=C(O)c1ccc(-n2nc(-c3ccccc3O)nc2-c2ccccc2O)cc1 [DFX, 4-[3,5-bis(2-hydroxyphenyl)-[1,2,4]triazol-1-yl]benzoic acid]
number of genes modulated by the three different agents (HL60): 105 | monocytic markers CD14 and CD11b (AML cells lines): induced

C=C1CC[C@H](O)C/C1=C/C=C1\CCC[C@]2(C)[C@@H]([C@H](C)CCCC(C)C)CC[C@@H]12 [VD, cholecalciferol]
markers of granulocyte differentiation / neutrophils (ELA2, PRTN3, CLC, AZU) (HL60; HL60, gene expression): down-regulated | markers of monocytes or activated macrophages (SERPINB8, ITGB2, TREML2, ITGAM) (HL60; HL60, gene expression): up-regulated | similarity of genes targeted by iron deprivation with VD (HL60; genome screening): 30% | genes of the 105 modulated by iron deprivation shared with VD modified genes (HL60; non-supervised analysis): Thirty | monocytic markers CD14 and CD11b (AML cells lines): induced | c-Jun gene expression (c-Jun, c-Fos): induced

C=C1/C(=C\C=C2/CCC[C@]3(C)[C@@H]([C@H](C)CCCC(C)(C)O)CC[C@@H]23)C[C@@H](O)C[C@@H]1O [calcitriol, 1α,25-dihydroxycholecalciferol D3]
antiproliferative activity [1]: exhibits antiproliferative activity
